The results in this text go back to US20250340939A1 (priority 2021, published 2025).

Entries after “also recorded” stand apart in the source; their conditions may differ. Where two headings read alike, the source gives them in different places.

What all share (assay type): binding
For one series, the system named is 16S rRNA (E. coli). Kind of series: MST of Cy5 probes hybridized with total bacterial RNA. As to conditions: 100 μM Dox, red mode. The method, then:
For bacterial RNA extraction, DH5α E. coli cells transfected with pcDNA3.1+ plasmid were grown overnight in LB medium containing 100 μg/ml ampicillin. The concentration of bacterial cells was determined according to OD at 600 nm, and ˜7·10^8 cells were taken for RNA extraction. 1 volume of bacterial culture was mixed with 2 volumes of RNAprotect® Bacteria Reagent (QIAGEN), vortexed for 5 seconds and incubated for 5 minutes at room temperature. The sample was then centrifuged for 10 minutes at 5,000×g at room temperature. After discarding supernatant, the pellet was resuspended in 100 μl TE buffer (10 mM Tris-HCl, 1 mM EDTA, pH 8) containing 1 mg/ml lysozyme. The samples were vortexed for 5 seconds, and then incubated at room temperature for 10 minutes with vortexing every 2 minutes. 1 ml TRIzol™ reagent was added to the sample. The sample was incubated at room temperature for 5 minutes, and then RNA extraction was performed as described hereinabove.
(§1) RNA was extracted from a sample, and after extraction, the RNA pellet was solubilized and hybridized with a specific fluorescently labeled DNA probe in a hybridization solution (as schematically depicted in FIG. 1). After hybridization, the hybridized sample was loaded into an MST capillary and inserted into a Monolith™ MST instrument (NanoTemper Technologies GmbH, Germany). This instrument included a blue mode (493 nm excitation, […]) and red mode ([…], 670 nm emission) for detection, and an I.R laser (1475 nm+/−15 nm) for heating. The intensities for both fluorescence detection (LED) and IR laser are adjustable, in a range of 0%-100%, wherein the temperature gradient generated has a temperature difference of up to about 2-8° C. Thermophoretic force was induced by infrared laser after 1 second, and maintained for 2 seconds, for a total of a 3 second measurement window (measurement time may optionally be further reduced to 2 seconds using current available MST instruments).
For RNA titration measurements, the extracted RNA solution was diluted to X2 and a serial dilution was prepared in water. Hybridization solutions were prepared as described herein, were X1 solution consisted of SSC buffer X1, 0.05% TWEEN™ 20 surfactant, and 1% formamide unless indicated otherwise. Fluorescently labeled probes were diluted from a 100 μM stock to 1:2400 in hybridization solution X2, denatured for 5 minutes at 100° C. and then incubated on ice for 5 minutes. If a mixture of uniformly labeled probes was prepared, the probes were diluted to a 1:1200 dilution in water and then diluted to 1:2400 with hybridization solution X4 (1:1/number of probes) to create equal molarity of the fluorescent dye. The probe solution was combined with the titration series in a 1:1 (v/v) ratio (10 μL total volume) and allowed to hybridize at a defined temperature for a given time as described. If post-hybridization with intercalating agents (ICA), doxorubicin or Midori™ Green, was performed, the samples were combined with ICA X5 solution 4:1 (v:v) ratio, 8 μL and 2 μL respectively. For cell based measurements, after extraction, the RNA pellet was solubilized and hybridized with a specific fluorescently labeled DNA probe in a hybridization solution (as schematically depicted in FIG. 1).
In order to determine the optimal hybridization temperature, one of the designed probes (16S1^Cy5) was incubated with increasing concentrations of bacterial RNA at different temperatures for 10 minutes. MST measurements were then performed using the red wavelength acquisition mode.
In order to assess the effect of human RNA presence and Dox post-hybridization on signal response, 16S1^Cy5 was incubated with increasing concentrations of bacterial or human total RNA at 71° C. for 2 hours. Equal amounts were then taken for post-hybridization incubation with Dox or hybridization buffer as a control. […]

In another series the test system is 18S rRNA (human). Kind of series: MST of probe hybridized with human RNA extracted from HEK 293T cells.
Description: as §1
For RNA titration measurements, the extracted RNA solution was diluted to X2 and a serial dilution was prepared in water. Hybridization solutions were prepared as described herein, were X1 solution consisted of SSC buffer X1, 0.05% TWEEN™ 20 surfactant, and 1% formamide unless indicated otherwise. Fluorescently labeled probes were diluted from a 100 μM stock to 1:2400 in hybridization solution X2, denatured for 5 minutes at 100° C. and then incubated on ice for 5 minutes. […]
As depicted in FIG. 3, fluorescent signals were quantified in the 1 second before application of a temperature gradient (Fcold) and between 1 and 2 seconds after application of the temperature gradient (Fhot). […]
As the probes are tagged with different florescent dyes, 18S^ATTO488 can be used as a control for the RNA extraction process. […] The signals of 18S^ATTO488 were measured using a blue wavelength acquisition mode and S^Cy5 using a red wavelength acquisition mode. […]

For another series, the system named is S-gene RNA (SARS-CoV2). As to conditions: for direction of thermophoretic flux / dependence of thermophoretic signal on S-gene RNA concentration: in the presence of 100 μM Dox; for direction of thermophoretic flux: increasing S-gene; for ΔFnorm (signal response): FIG. 37; for dependence of thermophoretic/fluorescent signal on S-gene RNA concentration: no intercalating agent, red wavelength acquisition mode.

For another series, the system named is HA gene (H1N1 influenza).
The subject of the next series is S-HA gene. As to the kind of experiment: MST of probes with artificial S-HA gene RNA (target length effect).
The subject of another series is control RNA. As to the kind of experiment: MST of probes incubated with control RNA (specificity). As to conditions: in the presence of 100 μM Dox; red mode.

On to “16S2^Cy5: Cy5-labeled 44 nucleotide DNA probe (SEQ ID NO: 10) complementary to E. coli 16S rRNA (DNA GCGGCCGTACTCCCCAGGCGGTCGACTTAACGCGTTAGCTCCGG; DNA, backbone not given here; Cy5 dye label)”, for which, in the series with 16S rRNA (E. coli), the “direction of thermophoretic migration (MST curves)” value (“direction … (MST curves)” below) is “migrated towards the heating zone both in the presence of bacterial RNA”.
Regarding “16S4^Cy5: Cy5-labeled 36 nucleotide DNA probe (SEQ ID NO: 12) complementary to E. coli 16S rRNA (DNA GGCAGTCTCCTTTGAGTTCCCGGCCGGACCGCTGGC; DNA, backbone not given here; Cy5 dye label)”, the “direction … (MST curves)” value in the series with 16S rRNA (E. coli) is “A similar effect was observed”.
On to “16S7^Cy5: Cy5-labeled 45 nucleotide DNA probe (SEQ ID NO: 15) complementary to E. coli 16S rRNA (DNA CCCCCTCCATCAGGCAGTTTCCCAGACATTACTCACCCGTCCGCC; DNA, backbone not given here; Cy5 dye label)”, for which, in the series on 16S rRNA (E. coli), the “direction … (MST curves)” value is “migrated towards the heating zone in the presence of increasing concentrations of bacterial RNA, but away from the heating zone in the absence of bacterial RNA”. The “sensitivity to target RNA concentration (linear regression slope)” value in the series on 16S rRNA (E. coli) (single probes, 10 minutes hybridization) was “significantly more sensitive to target RNA concentration than the other tested probes”.
For the substance “18S^ATTO488: probe with SEQ ID NO: 6 tagged with blue fluorescent dye ATTO 488, targets human 18S rRNA (DNA AGGGGCTGACCGGGTTGGTTTTGATCTGATAAATGCACGCATCCCC; ATTO 488 label; misc_feature 1..46 ATTO488 labeled; DNA sequence complementary to nucleotides 205-250 of SEQ ID NO: 5)”, the “selectivity of signal response to target RNA” value with 18S rRNA (human) (100 ng/μl HEK 293T RNA vs 400 ng/μl S-gene, 400 ng/μl control RNA or no RNA, blue mode) is “selective signal responses to their target RNA”. The “dependence of fluorescent signal on complementary RNA dose” value in the series on 18S rRNA (human) (RNA extracted from HEK 293T cells, blue mode) is recorded as “dependent on the dose of complementary RNA”. For the same substance, in the series with 18S rRNA (human) (mixed with S^Cy5, hybridization at 42° C. for 30 minutes), the “concomitant detection of 18S rRNA in human extracted RNA” value is “effective and quantitative”.
For the substance “HA^ATTO488: DNA having SEQ ID NO: 8 tagged with blue fluorescent dye ATTO 488, targets H1N1 HA-gene (DNA TGAAGCCGGCAATGGCCCCGAATAGGCCTCTAG; ATTO 488 label; misc_feature 1..33 DNA sequence complementary to nucleotides 567-599 of SEQ ID NO: 7 (nucleotides 1048-1080 of Influenza A H1N1 HA gene; ATTO488 labeled)”, in the series on S-gene RNA (SARS-CoV2) (SSC X1, 10% (v/v) formamide, blue mode), the “dependence of signal on S-gene concentration (off-target)” value is recorded as “not on the concentration of S-gene or control RNA”. Further, the “effect of higher saline sodium citrate buffer concentration on detection sensitivity” value with HA gene (H1N1 influenza) (SSC X1, X2, X4, blue mode) was “increased detection sensitivity”. In addition, the “dependence of signal on HA-gene concentration” value with HA gene (H1N1 influenza) (blue mode) was “dose-dependent signal; also recorded: dependent on the concentration of HA-gene”.
Turning to “SE^Cy5: Cy5-tagged 22 nucleotide DNA probe (SEQ ID NO: 3) designed to bind at the edge of the S-gene (DNA CAATATCACCAAGGCAATCACC; DNA, backbone not given here; Cy5 dye label)”, the “direction of thermophoretic flux” value in the series on S-gene RNA (SARS-CoV2) (red mode) is “directed away from the heating zone”. In the series on S-gene RNA (SARS-CoV2) (no Dox), the “ΔFnorm (signal response)” value is on record as 54.41 ‰. For the same substance, in the series with S-gene RNA (SARS-CoV2), the “dependence of thermophoretic/fluorescent signal on S-gene RNA concentration” value is given as “exhibited a thermophoretic signal dependent on S-gene RNA concentration”. Also, the “maximum signal response, S-gene vs S-HA gene” value with S-HA gene (red mode, FIG. 55) is “considerably stronger in the presence of S-gene than in the presence of S-HA”.
Turning to “SN^Cy5: Cy5-tagged 22 nucleotide "non-binding" DNA probe (SEQ ID NO: 4), negative control (DNA CACCATTAGTGGGTTGGAAACC; DNA, backbone not given here; Cy5 dye label)”, the “dependence of thermophoretic signal on S-gene RNA concentration” value in the series with S-gene RNA (SARS-CoV2) (red mode) is “not affected by RNA concentration”. Also, the “dependence of thermophoretic/fluorescent signal on S-gene RNA concentration” value with S-gene RNA (SARS-CoV2) is on record as “exhibits no change in MST signal; also recorded: no dependence; also recorded: did not generated dose-dependent signals”.
In the case of “S^Cy5: 33 base DNA (SEQ ID NO: 2) tagged with red dye Cy5, binds the middle of SARS-CoV2 S-gene RNA (DNA GGATTGACTAGCTACACTACGTGCCCGCCGAGG; DNA, backbone not given here; Cy5 dye label)”, in the series on S-gene RNA (SARS-CoV2), the “average maximum ΔFnorm” value was 547.1 ‰, the “selectivity of signal response to target RNA” value was “selective signal responses to their target RNA” and the “dependence of thermophoretic/fluorescent signal on S-gene RNA concentration” value was “dependent on the dose of complementary RNA; also recorded: exhibited a thermophoretic signal dependent on S-gene RNA concentration”. For the same substance, in the series with S-gene RNA (SARS-CoV2) (red mode), the “direction of thermophoretic flux” value is listed as “towards the heating zone” and the “dependence of thermophoretic signal on S-gene RNA concentration” value was “altered by S-gene RNA in a dose-dependent manner”. The “Z′-factor” value with S-gene RNA (SARS-CoV2) (maximum signal response with S-gene compared to no RNA control) was found to be 0.85. Besides, the “concomitant detection of S-gene in presence of human extracted RNA” value in the series with S-gene RNA (SARS-CoV2) (mixed with 18S^ATTO488, hybridization at 42° C. for 30 minutes) is “effective and quantitative”. The “ΔFnorm (signal response)” value in the series on S-gene RNA (SARS-CoV2) (no Dox) is listed as 110.63 ‰. For the same substance, the “average maximum ΔFnorm” value in the series with S-gene RNA (SARS-CoV2) (no Dox, red mode) is listed as 116.5 ‰. Further, in the series on HA gene (H1N1 influenza) (red mode, data not shown), the “signal response to HA-gene (off-target)” value is given as “no response in signal was observed”. For the same substance, in the series on control RNA, the “effect of control RNA on probe signal” value is “no effect”. Moreover, the “sensitivity (slope at low RNA levels), S-HA-gene vs S-gene” value in the series with S-HA gene is “considerably greater sensitivity than towards S-gene”. For the same substance, in the series on S-HA gene (red mode, FIG. 55), the “affinity towards S-HA gene compared with S-gene” value was “higher affinity towards S-HA gene than to S-gene” and the “maximum signal response, S-gene vs S-HA gene” value is listed as “did not differ”.
